The text below walks through data of paper PMC5634595, “Properties of halogenated and sulfonated porphyrins relevant for the selection of photosensitizers in anticancer and antimicrobial therapies” (PLoS ONE, 2017).

The structures appear in SMILES notation.

A short description of series [1]: Singlet oxygen quantum yield by phosphorescence at 1270 nm. The class given is physicochemical. The following applies: EtOH, phenalenone as reference. The procedure:
(§1) Fluorescence emission spectra were recorded from 550 nm to 750 nm with excitation at Soret band (λ≈420 nm). The excitation and emission slits were both set to 8 nm and scanning speed to 50 nm/min. Fluorescence spectra were recorded with a Perkin Elmer Fluorescence Spectrometer LS 55. Determination of fluorescence quantum yields: ΦF of studied photosensitizers was determined using the comparative method according to the equation: ΦF=ΦFStd⋅FAStdn^2/FStdAnStd2, (1) where F and FStd are the areas under the fluorescence emission curves of the sample and the standard, A and AStd are the absorbance of the sample and the standard and n are the refractive indices of the solvent used for the sample and the standard, respectively. Commercially available tetraphenylporphyrin TPP (Std) (ΦF = 0.10 in toluene) was employed as the standard. The absorbance of the solutions at the excitation wavelength was in the range of 0.02. Singlet oxygen quantum yields were determined based on the relative phosphorescence emissions of singlet oxygen generated by a reference and by each one of the porphyrins, using a method described elsewhere. Briefly, a modified Applied Photophysics LKS.60 flash photolysis spectrometer with a Hamamatsu NIR photomultiplier for detection and HP Infinium (500 MHz, 1GSas^-1) or Tektronix DPO 7254 (2.5 GHz, 40GSas^-1) oscilloscopes were used. The adaptation of this spectrometer allowed for the detection of singlet oxygen phosphorescence at room temperature. This emission was detected using a Hamamatsu R5509–42 photomultiplier, cooled to 193 K in a liquid nitrogen chamber. […] The modification of the spectrometer for time-resolved singlet oxygen phosphorescence measurements involved the interposition of a Melles Griot cold mirror (03MCS005), which reflects more than 99% of the incident light in the 400–700 nm range, and of a Scotch RG665 filter. A 600 line diffraction grating was mounted in place of a standard one. […] Solutions of photosensitizers were prepared with matched absorbances close to 0.2 at 355 nm. […]

Another series deals with HSA (Homo sapiens, UniProt P02768). In words: Binding to HSA by fluorescence quenching (Stern-Volmer, Scatchard). The procedure:
The binding of the PS to HSA was studied by spectrofluorometry at room temperature. An aqueous (phosphate buffer saline, PBS) solution of HSA was titrated with varying concentrations of the respective porphyrin solutions. HSA was excited at 295 nm and fluorescence was recorded between 300 nm and 400 nm. The systematic lowering of HSA fluorescence with increasing photosensitizer concentrations was noted and used in the determination of the binding constants and the number of binding sites on HSA according to Scatchard equation. The changes in HSA fluorescence intensity were related to porphyrin concentrations by the Stern-Volmer relationship. The binding constant (Kb) of PS to lipoproteins was also determined using the spectroscopic titration method. The sets of steady-state emission spectra of PBS solutions with different concentrations of HDL and LDL, to which the porphyrin (5 μM) was added were measured. The fluorescence intensity of the dye increased upon its partitioning into the lipoproteins. To obtain Kb, F versus [L] data were plotted and fitted to by a nonlinear regression routine.

A short description of series [2]: Fluorescence emission and fluorescence quantum yield (comparative method). The following applies: EtOH, TPP as standard. It counts as physicochemical. The procedure: as §1

Chain of HSA (P02768 25-609): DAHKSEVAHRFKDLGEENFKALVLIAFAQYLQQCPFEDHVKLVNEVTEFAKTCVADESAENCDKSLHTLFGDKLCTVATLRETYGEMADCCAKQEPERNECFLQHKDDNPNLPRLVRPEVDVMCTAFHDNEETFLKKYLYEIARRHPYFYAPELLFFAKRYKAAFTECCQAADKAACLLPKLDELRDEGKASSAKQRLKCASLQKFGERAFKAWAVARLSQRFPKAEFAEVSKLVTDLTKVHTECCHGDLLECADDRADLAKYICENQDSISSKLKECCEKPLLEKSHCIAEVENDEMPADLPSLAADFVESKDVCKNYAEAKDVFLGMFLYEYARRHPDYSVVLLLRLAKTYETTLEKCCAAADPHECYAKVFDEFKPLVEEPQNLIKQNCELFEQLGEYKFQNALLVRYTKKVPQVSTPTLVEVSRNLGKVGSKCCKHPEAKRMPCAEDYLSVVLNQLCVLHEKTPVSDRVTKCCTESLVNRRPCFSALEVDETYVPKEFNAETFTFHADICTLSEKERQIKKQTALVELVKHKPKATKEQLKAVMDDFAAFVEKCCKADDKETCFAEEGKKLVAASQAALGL

On to `O=S(=O)(O)c1ccc(F)c(-c2c3nc(c(-c4c(F)ccc(S(=O)(=O)O)c4F)c4ccc([nH]4)c(-c4c(F)ccc(S(=O)(=O)O)c4F)c4nc(c(-c5c(F)ccc(S(=O)(=O)O)c5F)c5ccc2[nH]5)C=C4)C=C3)c1F` [F2POH, 5,10,15,20-tetrakis(2,6-difluoro-3-sulfophenyl)porphyrin], for which the “Singlet oxygen quantum yield ΦΔ” value in series [1] is on record as 0.71. Moreover, the “KSV (Stern-Volmer constant), HSA” value at HSA (HSA fluorescence quenching, PBS, room temperature) was 2.24 10^5M^-1. In addition, the “n (number of binding sites), HSA” value at HSA (Scatchard analysis) is 1. For the same compound, the “Fluorescence quantum yield ΦF” value in series [2] is on record as 0.040.
